In US11873295B2, “Allosteric chromenone inhibitors of phosphoinositide 3-kinase (PI3K) for the treatment of disease” (Petra Pharma Corporation, priority 2021, dated 2024) one finds IC50 data, which are given here for 14 molecules.

Assay [1] has as its target T1, human full length PIK3KA H1047R mutant (p110α/p85α complex) (Homo sapiens, UniProt P42336, H1047R).
T1 construct: Recombinant, catalytically active human full length PIK3KA Wild-type and H1047R mutant were purchased as 1:1 complex; 6xHis (N); purchased EMD Millipore Sigma 14-792M
The assay can be described thus: PI3K-alpha kinase (PIK3CA) biochemical activity, H1047R mutant, ADP-Glo. As to conditions: PI3K-α (PIK3CA) biochemical, H1047R mutant. From the text: (§1) PI3K-Alpha Kinase (PIK3CA) Activity, Wild-Type and H1047R Mutant and Determining IC50 Values for Inhibitors
(§2) Recombinant, catalytically active human full length PIK3KA Wild-type and H1047R mutant were purchased as 1:1 complex of N-terminal 6× his tagged p110α (catalytic) and untagged p85α (regulatory subunit) from EMD Millipore Sigma (cat. no. 14-602M and 14-792M, respectively). PIP2diC8 (Avanti Polar Lipids Inc., cat. no. 850185) or Soy PI (Avanti Polar Lipids Inc., cat. No. 840044P) was used as lipid substrate. PIP2diC8 or PI lyophilized powder was dissolved in milliQ water to a concentration of 1 mM just before use. 10 mM stock compounds in DMSO were serially diluted 1:3 to generate a 10-point curve and plated using an acoustic liquid handler system (Echo 550 series instrument, Labcyte). A 10× intermediate compound plate (200 uM starting compound concentration and 10% DMSO) was prepared before starting the reaction. A typical reaction mixture (50 uL) comprised 40 mM HEPES buffer, pH 7.4, 25 mM MgCl2, 0.01% v/v triton-X-100, 1% v/v DMSO, 20 mM NaCl, 1-5 nM WT or H1047R PI3K protein, 20 uM ATP, and 50 uM PIP2diC8 or Soy PI. 1% DMSO buffer alone without test compound was employed as MAX control (full activity in the absence of any inhibitor), and no enzyme control was used to determine the level of background Adenosine 5′-diphosphate (ADP) (MIN control). First, Wild-type (WT) and H1047R mutant protein in kinase buffer with all components except ATP were incubated with or without compound at 27° C. for 1 h. After the pre-incubation, the reaction was initiated by the addition of 20 uL of 50 uM ATP (20 uM final concentration). The reaction was allowed to proceed until about 10% conversion of ATP (2 uM ADP) at 27° C. After that time, 5 uL of reaction was mixed with 5 uL of ADP-Kinase Glo Reagent (ADP-Glo Kinase assay kit, Promega cat. no. V9102) supplemented with MgCl2 10 mM to stop the reaction and deplete the remaining ATP for 40 min at room temperature. Then, 10 uL of Kinase Detection Reagent (ADP-Glo Kinase assay kit, Promega cat. no. V9102) was added to simultaneously convert ADP to ATP and allow the newly synthesized ATP to be measured using a luciferase/luciferin reaction. After 30 min at room temperature the light generated was measured using a luminometer (EnVision plate reader, Perkin Elmer). Process data through Genedata-Screener tool. Relative IC50 values are determined using luminescence units by calculating percent inhibition with respect to on-plate “MIN” and “MAX” controls. Data was analyzed using a 4-parameter nonlinear logistic equation (four-parameter logistic concentration-response curve): Y=bot+[(top−bot)/1+(x/IC50)slope] where Y=% inhibition, X=concentration yielding y % inhibition, Bottom=minimum value of y attained by curve, Top=maximum value of y attained by curve and Slope=steepness of curve at IC50. % Inh=[(median Max−x/median Max−median Min)]·100 IC50: concentration of compound that reduces a given response (ligand binding, enzyme response) by 50%. IC50 relative: concentration giving half the compound's maximum response.
(§3) For IC50 values shown in Table A, “A” means IC50<0.5 μM; “B” means IC50 ranging between 0.5 μM and 1.0 μM; “C” means IC50 ranging between 1 μM and 5 μM; “D” means IC50 ranging between 5 μM and 10 μM; “E” means IC50>10 μM.
A general note: ADP-Glo first removes unused ATP, then detects ADP through luciferase.

Assay [2] addresses T2, human full length PIK3KA Wild-type (p110α/p85α complex) (Homo sapiens, UniProt P42336).
T2 construct: Recombinant, catalytically active human full length PIK3KA Wild-type and H1047R mutant were purchased as 1:1 complex; 6xHis (N); purchased EMD Millipore Sigma 14-602M
Description: PI3K-alpha kinase (PIK3CA) biochemical activity, wild-type, ADP-Glo. The following applies: PI3K-α (PIK3CA) biochemical.
From the text: as §1, §2, §3

Setting [3] is: PIP2diC8 lipid substrate (footnote 1).

SMILES strings stand for the structures.

T1 sequence (P42336 whole entry H1047R): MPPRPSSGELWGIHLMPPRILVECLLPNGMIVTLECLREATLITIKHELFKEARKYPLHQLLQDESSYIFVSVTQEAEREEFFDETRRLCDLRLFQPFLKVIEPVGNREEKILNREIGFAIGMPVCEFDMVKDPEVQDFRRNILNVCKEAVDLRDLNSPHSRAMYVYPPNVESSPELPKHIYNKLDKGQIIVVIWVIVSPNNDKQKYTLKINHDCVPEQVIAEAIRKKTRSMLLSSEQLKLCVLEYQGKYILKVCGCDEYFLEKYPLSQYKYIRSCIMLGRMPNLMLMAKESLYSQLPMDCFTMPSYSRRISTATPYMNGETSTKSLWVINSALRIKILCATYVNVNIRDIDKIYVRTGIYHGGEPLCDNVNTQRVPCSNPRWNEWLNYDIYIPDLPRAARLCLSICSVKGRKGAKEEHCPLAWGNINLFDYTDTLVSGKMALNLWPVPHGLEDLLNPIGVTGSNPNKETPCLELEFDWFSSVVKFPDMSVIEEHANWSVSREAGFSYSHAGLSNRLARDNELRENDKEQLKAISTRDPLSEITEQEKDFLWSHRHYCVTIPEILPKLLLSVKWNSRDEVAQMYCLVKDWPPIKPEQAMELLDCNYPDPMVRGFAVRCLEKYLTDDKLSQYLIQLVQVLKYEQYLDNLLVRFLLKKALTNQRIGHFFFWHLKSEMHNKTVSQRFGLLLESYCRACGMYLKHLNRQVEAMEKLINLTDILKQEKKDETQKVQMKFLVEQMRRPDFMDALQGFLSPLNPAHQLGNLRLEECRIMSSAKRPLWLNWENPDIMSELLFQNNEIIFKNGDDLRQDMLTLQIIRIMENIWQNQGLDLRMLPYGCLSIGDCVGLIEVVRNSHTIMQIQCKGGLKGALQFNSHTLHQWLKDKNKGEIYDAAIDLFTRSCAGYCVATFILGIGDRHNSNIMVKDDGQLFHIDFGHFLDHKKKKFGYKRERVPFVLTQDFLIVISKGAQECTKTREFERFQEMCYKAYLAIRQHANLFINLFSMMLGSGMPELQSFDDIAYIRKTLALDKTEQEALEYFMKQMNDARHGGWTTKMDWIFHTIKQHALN
T1 sequence (P27986 whole entry partner): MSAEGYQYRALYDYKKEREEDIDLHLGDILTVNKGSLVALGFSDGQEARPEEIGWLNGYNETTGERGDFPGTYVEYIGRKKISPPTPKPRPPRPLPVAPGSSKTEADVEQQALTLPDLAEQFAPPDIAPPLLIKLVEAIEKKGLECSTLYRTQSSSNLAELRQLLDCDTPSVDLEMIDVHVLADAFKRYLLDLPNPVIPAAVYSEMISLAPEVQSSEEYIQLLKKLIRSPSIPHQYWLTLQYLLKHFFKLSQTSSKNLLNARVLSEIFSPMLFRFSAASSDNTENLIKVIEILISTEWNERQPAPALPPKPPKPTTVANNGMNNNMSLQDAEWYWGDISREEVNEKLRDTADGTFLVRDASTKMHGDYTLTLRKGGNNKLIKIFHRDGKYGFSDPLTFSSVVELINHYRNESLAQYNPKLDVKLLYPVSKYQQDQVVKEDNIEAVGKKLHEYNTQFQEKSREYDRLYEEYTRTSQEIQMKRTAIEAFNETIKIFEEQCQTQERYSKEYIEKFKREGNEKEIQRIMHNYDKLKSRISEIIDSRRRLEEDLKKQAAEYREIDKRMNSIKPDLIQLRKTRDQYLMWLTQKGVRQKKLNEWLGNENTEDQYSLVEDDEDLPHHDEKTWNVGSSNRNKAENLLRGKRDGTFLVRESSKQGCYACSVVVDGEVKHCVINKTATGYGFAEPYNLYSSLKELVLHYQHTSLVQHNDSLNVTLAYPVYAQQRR

As usually defined, the IC50 is the concentration that gives 50% inhibition. High values mean a need for much substance, low ones inhibition by little substance. As for `Cc1cc([C@@H](C)Nc2ccc(Cl)nc2C(=O)O)c2oc(-c3ccccc3)c(C(F)(F)F)c(=O)c2c1` [Example 139, 6-Chloro-3-[[(1R)-1-[6-methyl-4-oxo-2-phenyl-3-(trifluoromethyl)-chromen-8-yl]ethyl]amino]pyridine-2-carboxylic acid 2,2,2-trifluoroacetic acid], the IC50 in assay [1] (Soy PI lipid substrate) and in assay [2] (Soy PI lipid substrate) was less than 0.5 µM throughout.
In the case of `Cc1cc(C(C)Nc2ccccc2C(=O)O)c2oc(-c3ccc(S(C)(=O)=O)cc3)cc(=O)c2c1` (single isomer, unassigned; isomer 2) [Example 48, 2-[1-[6-Methyl-2-(4-methylsulfonylphenyl)-4-oxo-chromen-8-yl]ethylamino]benzoic acid, Isomer 2], the IC50 in assay [1] (Soy PI lipid substrate) is less than 0.5 µM; in assay [2] (Soy PI lipid substrate), greater than 10 µM.
The corresponding values for `Cc1cc(C(C)Nc2ccccc2C(=O)O)c2oc(-c3ccc(C4(C#N)CC4)cc3)cc(=O)c2c1` (single isomer, unassigned; isomer 2) [Example 53, 2-[1-[2-[4-(1-Cyanocyclopropyl)-phenyl]-6-methyl-4-oxo-chromen-8-yl]ethylamino]benzoic acid, Isomer 2] are less than 0.5 µM and 1 to 5 µM.
As to `Cc1cc(C(C)Nc2ccccc2C(=O)O)c2oc(-c3ccc(N4CCCC4)cc3)cc(=O)c2c1` (stereo not shown) [Example 45, 2-[1-[6-Methyl-4-oxo-2-(4-pyrrolidin-1-ylphenyl)chromen-8-yl]ethylamino]benzoic acid 2,2,2-trifluoroacetic acid], the IC50 in assay [1] (Soy PI lipid substrate) was less than 0.5 µM; in assay [2] (Soy PI lipid substrate) it was greater than 10 µM.
The corresponding values for `Cc1cc(C(C)Nc2ccc(Cl)nc2C(=O)O)c2oc(-c3ccccc3)c(I)c(=O)c2c1` (single isomer, unassigned; isomer 2) [Example 154, 6-Chloro-3-[1-(3-iodo-6-methyl-4-oxo-2-phenyl-chromen-8-yl)ethylamino]pyridine-2-carboxylic acid, Isomer 2] are less than 0.5 µM and 0.5 to 1 µM.
In the case of `Cc1c(-c2ccccc2)oc2c([C@@H](C)Nc3ccccc3C(=O)O)cc(F)cc2c1=O` [Example 72, 2-[[(1R)-1-(6-Fluoro-3-methyl-4-oxo-2-phenyl-chromen-8-yl)ethyl]amino]benzoic acid 2,2,2-trifluoroacetic acid], the IC50 in assay [1] (Soy PI lipid substrate) and in assay [2] (Soy PI lipid substrate) was 1 to 5 µM throughout.
For the molecule `C[C@@H](Nc1ccccc1C(=O)O)c1cc(C(F)(F)F)cc2c(=O)cc(-c3ccc(F)cc3F)oc12` [Example 90, 2-[[(1R)-1-[2-(2,4-Difluorophenyl)-4-oxo-6-(trifluoromethyl)-chromen-8-yl]ethyl]amino]benzoic acid], the IC50 was less than 0.5 µM in assay [1] (Soy PI lipid substrate) and 5 to 10 µM in assay [2] (Soy PI lipid substrate).
In the case of `Cc1c(-c2cccc(C(F)F)c2)oc2c([C@@H](C)Nc3ccccc3C(=O)O)cc(F)cc2c1=O` [Example 83, 2-[[(1R)-1-[2-[3-(Difluoromethyl)phenyl]-6-fluoro-3-methyl-4-oxo-chromen-8-yl]ethyl]amino]benzoic acid 2,2,2-trifluoroacetic acid], the IC50 in assay [1] (Soy PI lipid substrate) was less than 0.5 µM; in assay [2] (Soy PI lipid substrate) it was 5 to 10 µM.
In the case of `Cc1cc([C@@H](C)Nc2ccc(C)nc2C(=O)O)c2oc(-c3ccccc3)cc(=O)c2c1` [Example 46, 6-Methyl-3-[[(1R)-1-(6-methyl-4-oxo-2-phenyl-chromen-8-yl)ethyl]amino]-pyridine-2-carboxylic acid], the IC50 in assay [1] (Soy PI lipid substrate) is less than 0.5 µM; in assay [2] (Soy PI lipid substrate), 5 to 10 µM.
As to `CC(Nc1ccccc1C(=O)O)c1c(F)c(F)cc2c(=O)cc(-c3ccccc3)oc12` (stereo not shown) [Example 6, 2-[1-(6,7-Difluoro-4-oxo-2-phenyl-chromen-8-yl)ethylamino]benzoic acid 2,2,2-trifluoroacetic acid], the IC50 in assay [1] (setting [3]) was less than 0.5 µM; in assay [2] (setting [3]) it was 1 to 5 µM.
As to `Cc1cc(C(C)Nc2ccccc2C(=O)O)c2oc(-c3ccc(S(C)(=O)=O)cc3)cc(=O)c2c1` (stereo not shown) [Example 9, 2-[1-[6-Methyl-2-(4-methylsulfonylphenyl)-4-oxo-chromen-8-yl]ethylamino]benzoic acid 2,2,2-trifluoroacetic acid], the half-inhibitory concentration (IC50) in assay [1] (Soy PI lipid substrate) is less than 0.5 µM; in assay [2] (Soy PI lipid substrate), greater than 10 µM.
Turning to `Cc1cc(C(C)Nc2ccccc2C(=O)O)c2oc(-c3ccc(N4CCCC4)cc3)cc(=O)c2c1` (single isomer, unassigned; isomer 1) [Example 54, 2-[1-[6-Methyl-4-oxo-2-(4-pyrrolidin-1-ylphenyl)chromen-8-yl]ethylamino]benzoic acid, Isomer 1], the values for the half-maximal inhibitory concentration (IC50) in assay [1] (Soy PI lipid substrate) and in assay [2] (Soy PI lipid substrate) were 0.5 to 1 µM and greater than 10 µM, respectively.
For the molecule `Cc1cc([C@@H](C)Nc2ccccc2C(=O)O)c2oc(-c3ccccc3)cc(=O)c2c1` [Example 22, 2-[[(1R)-1-(6-Methyl-4-oxo-2-phenyl-chromen-8-yl)ethyl]amino]benzoic acid], the IC50 in assay [1] (setting [3]) and in assay [2] (setting [3]) was less than 0.5 µM throughout.
As to `Cc1cc([C@@H](C)Nc2ccccc2C(=O)O)c2oc(-c3ccc(C#N)cc3F)cc(=O)c2c1` [Example 51, 2-[[(1R)-1-[2-(4-Cyano-2-fluoro-phenyl)-6-methyl-4-oxo-chromen-8-yl]ethyl]amino]benzoic acid 2,2,2-trifluoroacetic acid], the 50% inhibitory concentration (IC50) in assay [1] (Soy PI lipid substrate) is less than 0.5 µM; in assay [2] (Soy PI lipid substrate), 1 to 5 µM.
